Source: patent US8344028B2, “Gamma-amino-butyric acid derivatives as GABAB receptor ligands” (XenoPort, Inc., priority 2009, dated 2013)

Biological target: GABAB receptor (Homo sapiens, UniProt Q9UBS5)
Experiment: GABAB receptor agonist or partial agonist activity by binding, electrophysiology, cAMP and/or Ca2+ assay methods (Examples 83-86)
Format: cell-based
Description: An assay using rat cerebral cortex membranes was used to determine the affinity of GABAB receptor ligands for the GABAB receptor.
An assay buffer of 50 mM Tris pH 7.4 was prepared with 100 μM of isoguvacine, to block GABAA interactions. The assay buffer with isoguvacine was used for dilution of membranes, compounds, and radiolabel.
Rat cerebral cortex membranes were diluted in assay buffer at 1 mg/mL and aliquoted into a 96-well plate at 900 μL/well. Buffer or test compound were added at 20-times final concentration in the buffer at 50 μL/well. Membranes and test compounds or buffer were incubated for 10 min. at room temperature. Radiolableled [S—(R*,R*)]-[3-[[1-(3,4-dichlorophenyl)ethyl]amino]-2-hydroxypropyl](cyclohexylmethyl) phosphinic acid (CGP54626) was then added at 50 μL/well in the buffer at 1-10 nM concentration in 50 μl. […] The assay mixture was filtered using Brandell filtration apparatus and GFB filters, washed twice with 3 mL of 4° C., 50 mM Tris pH 7.4, buffer without isoguvacine. The filters were then dried at room temperature and the dried filters punched out and placed in individual vials. Three (3) mL of scintillation fluid was added to each vial and the radiolabel counted on the scintillation counter. The inverse amount of radiolabel was indicative of binding of a test compound to the GABAB receptor.
The following procedure was used to determine the level of intracellular cAMP. Recombinant HEK cells expressing the GABAB R1a2 receptor were used in the experiments. cAMP levels were measured using a cAMP XS^+ HitHunter™ Chemiluminescence Assay Kit (90-0075-02, GE Healthcare Biosciences Corp.). Cells were seeded overnight at 5,000 cells per well, in black, clear bottom 96-well plates. The following morning, cells were washed twice with 100 μL PBS per well. Forskolin was weighed out and dissolved in DMSO to a final concentration 100 mM. One-hundred (100) μM forskolin solutions were prepared in PBS with and without test compound at 1-times final concentration. Thirty (30) μL of the test solutions were added to the wells and incubated for 1 h at room temperature. The cAMP concentration was determined according to the protocol described in the cAMP assay kit, maintaining the plate at room temperature and in the dark. […] Each well was read for 6 seconds. The untransformed data was then analyzed.
The following procedure was used to determine the GABAB receptor agonist activity of a compound as reflected by activation of Ca^2+ signaling. HEK TREx cells expressing GABABR1a2 under tetracycline induction control, and Gqi chimeric protein (expressed constitutively), allowing GABABR coupling through the Ca^2+ signaling pathway were used in the experiments.
Cells were seeded in media containing tetracycline overnight at 100,000 cells/well, in black, clear-bottom, 96-well plates. The following morning, cells were washed twice with 100 μL HBSS buffer per well. Fluorescent Ca^2+ indicator dye was prepared using the materials and procedure described in the F362056 Fluo-4 NW Calcium Assay Kit (Invitrogen, Carlsbad, Calif.). Ten (10) mL of kit buffer and 100 μl of kit Probenecid were added to individual kit dye vials, and rolled back and forth several times to dissolve the dye. Cells were then loaded into the dye solution at 50 μL per well. The cells and dye were incubated for 30 min at 37° C., and then incubated for an additional 30 min at room temperature in the dark. Test compounds are dissolved in HBSS buffer at twice final concentration. Duplicate wells were used for each unique condition. Solution containing the test compound was added to the wells using a FLEXStation II (Molecular Devices, Sunnyvale, Calif.). Using the instrument in kinetic mode in which each well was read every 2 sec over a total collection time of 50 sec fluorescence was measured using an excitation wavelength 494 nm and a detection wavelength of 516 nm. A normalized fluorescence value for each well was calculated using the following procedure.

GABAB receptor, sequence (Q9UBS5 20-961): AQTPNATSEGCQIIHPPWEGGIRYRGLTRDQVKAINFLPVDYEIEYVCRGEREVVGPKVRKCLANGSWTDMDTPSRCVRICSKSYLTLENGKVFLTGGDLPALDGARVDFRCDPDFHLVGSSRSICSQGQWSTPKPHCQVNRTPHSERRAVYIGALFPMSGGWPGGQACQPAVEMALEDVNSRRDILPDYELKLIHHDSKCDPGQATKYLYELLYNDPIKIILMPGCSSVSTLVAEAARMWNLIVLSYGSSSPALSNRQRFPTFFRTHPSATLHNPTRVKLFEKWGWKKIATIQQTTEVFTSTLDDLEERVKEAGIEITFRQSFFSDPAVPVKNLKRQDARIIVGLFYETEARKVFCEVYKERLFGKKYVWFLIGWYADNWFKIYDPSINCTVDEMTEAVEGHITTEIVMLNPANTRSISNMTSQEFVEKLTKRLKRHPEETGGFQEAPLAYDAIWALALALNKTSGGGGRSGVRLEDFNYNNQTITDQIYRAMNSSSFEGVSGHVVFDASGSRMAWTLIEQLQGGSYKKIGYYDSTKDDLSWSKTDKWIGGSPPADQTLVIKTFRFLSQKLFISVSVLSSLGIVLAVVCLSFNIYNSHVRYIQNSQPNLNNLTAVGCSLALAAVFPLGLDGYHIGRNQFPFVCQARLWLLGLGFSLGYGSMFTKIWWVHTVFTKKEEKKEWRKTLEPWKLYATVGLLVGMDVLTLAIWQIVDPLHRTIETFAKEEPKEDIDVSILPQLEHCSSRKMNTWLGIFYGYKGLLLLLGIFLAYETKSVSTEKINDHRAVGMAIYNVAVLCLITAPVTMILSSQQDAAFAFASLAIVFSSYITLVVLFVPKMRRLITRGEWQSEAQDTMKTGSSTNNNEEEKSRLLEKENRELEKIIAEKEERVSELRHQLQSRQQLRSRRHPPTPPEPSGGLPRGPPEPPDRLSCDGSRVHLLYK
GABAB receptor, sequence (O75899 42-941 partner): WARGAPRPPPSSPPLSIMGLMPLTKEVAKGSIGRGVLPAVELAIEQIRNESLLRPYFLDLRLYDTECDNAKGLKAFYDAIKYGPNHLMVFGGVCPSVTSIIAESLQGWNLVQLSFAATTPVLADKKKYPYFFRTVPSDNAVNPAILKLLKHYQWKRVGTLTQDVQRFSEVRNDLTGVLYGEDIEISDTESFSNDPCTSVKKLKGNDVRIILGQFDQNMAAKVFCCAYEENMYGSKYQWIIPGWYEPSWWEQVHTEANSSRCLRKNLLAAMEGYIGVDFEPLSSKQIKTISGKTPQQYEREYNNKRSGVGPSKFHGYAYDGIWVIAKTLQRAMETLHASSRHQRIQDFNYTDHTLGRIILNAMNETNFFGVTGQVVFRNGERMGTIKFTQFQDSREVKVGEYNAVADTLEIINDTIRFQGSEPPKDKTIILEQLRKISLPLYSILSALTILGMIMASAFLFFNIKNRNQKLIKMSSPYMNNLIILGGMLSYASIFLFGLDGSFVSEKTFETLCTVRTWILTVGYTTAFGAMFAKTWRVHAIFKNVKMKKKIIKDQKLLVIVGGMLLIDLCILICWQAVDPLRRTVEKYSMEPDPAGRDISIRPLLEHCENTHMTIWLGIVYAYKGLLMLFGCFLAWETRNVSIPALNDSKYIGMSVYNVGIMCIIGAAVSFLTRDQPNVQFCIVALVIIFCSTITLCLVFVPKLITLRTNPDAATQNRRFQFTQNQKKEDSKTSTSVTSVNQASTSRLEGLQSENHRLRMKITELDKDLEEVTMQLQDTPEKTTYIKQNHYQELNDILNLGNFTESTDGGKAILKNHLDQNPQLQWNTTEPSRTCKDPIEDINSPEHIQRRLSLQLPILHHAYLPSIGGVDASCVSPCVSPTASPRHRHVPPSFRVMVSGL

Row | SMILES | GABAB receptor agonist or partial agonist activity
1 | Cl.NC[C@H](CC(=O)O)c1ccc(Cl)c(-c2ccc(Cl)c(Cl)c2)c1 [(3R)-4-amino-3-[4-chloro-3-(3,4-dichlorophenyl)phenyl]butanoic acid hydrochloride] | agonist or partial agonist activity
2 | Cc1ncc(-c2cc([C@H](CN)CC(=O)O)ccc2Cl)cn1.Cl [Example 30, (3R)-4-Amino-3-[4-chloro-3-(2-methylpyrimidin-5-yl)phenyl]butanoic acid hydrochloride] | agonist or partial agonist activity
3 | Cl.NC[C@H](CC(=O)O)c1ccc(Cl)c(NCc2ccc(C(=O)O)cc2)c1 [Example 63, 4-[({5-[(1R)-2-Amino-1-(carboxymethyl)ethyl]-2-chlorophenyl}amino)methyl]benzoic acid hydrochloride] | agonist or partial agonist activity
4 | Cl.NC[C@H](CC(=O)O)c1cc(Br)c(Cl)c(-c2cccc(C(=O)O)c2)c1 [3-{5-[(1R)-2-amino-1-(carboxymethyl)ethyl]-3-bromo-2-chlorophenyl}benzoic acid hydrochloride] | agonist or partial agonist activity
5 | Cl.N#Cc1cccc(-c2cc([C@H](CN)CCO)ccc2Cl)c1 [Example 53, 3-{5-[(1R)-1-(Aminomethyl)-3-hydroxypropyl]-2-chlorophenyl}benzenecarbonitrile hydrochloride] | agonist or partial agonist activity
6 | Cl.N#Cc1cccc(COc2cc([C@H](CN)CC(=O)O)ccc2Cl)c1 [(3R)-4-amino-3-{4-chloro-3-[(3-cyanophenyl)methoxy]phenyl}butanoic acid hydrochloride] | agonist or partial agonist activity
7 | Cl.N#Cc1ccccc1CNc1cc([C@H](CN)CC(=O)O)ccc1Cl [(3R)-4-amino-3-(4-chloro-3-{[(2-cyanophenyl)methyl]amino}phenyl)butanoic acid hydrochloride] | agonist or partial agonist activity
8 | Cl.NC[C@H](CC(=O)O)c1ccc(Cl)c(OCc2ccccc2)c1 [(3R)-4-amino-3-[4-chloro-3-(phenylmethoxy)phenyl]butanoic acid hydrochloride] | agonist or partial agonist activity
9 | Cl.NC[C@H](CC(=O)O)c1ccc(Cl)c(OCc2ccccn2)c1 [(3R)-4-amino-3-[4-chloro-3-(2-pyridylmethoxy)phenyl]butanoic acid hydrochloride] | agonist or partial agonist activity
10 | Cl.NC[C@H](CC(=O)O)c1cccc(-c2cccc(C(=O)O)c2)c1 [Example 51, 3-{3-[(1R)-2-Amino-1-(carboxymethyl)ethyl]phenyl}benzoic acid hydrochloride] | agonist or partial agonist activity
11 | N#Cc1cccc(C(=O)Nc2cc([C@H](CN)CC(=O)O)ccc2Cl)c1 [(3R)-4-amino-3-{4-chloro-3-[(3-cyanophenyl)carbonylamino]phenyl}butanoic acid] | agonist or partial agonist activity
12 | Cl.NC[C@H](CC(=O)O)c1ccc(Cl)c(-c2cccc(CC(=O)O)c2)c1 [Example 43, (3R)-4-Amino-3-{3-[3-(carboxymethyl)phenyl]-4-chlorophenyl}butanoic acid hydrochloride] | agonist or partial agonist activity
13 | NC[C@H](CC(=O)O)c1ccc(Cl)c(Oc2cccc(C(=O)O)c2)c1 [Example 22, 3-{5-[(1R)-2-Amino-1-(carboxymethyl)ethyl]-2-chlorophenoxy}benzoic acid] | agonist or partial agonist activity
14 | Cl.N#Cc1cccc(-c2cc([C@@H](CN)CC(=O)O)ccc2Cl)c1 [(3S)-4-amino-3-[4-chloro-3-(3-cyanophenyl)phenyl]butanoic acid hydrochloride] | agonist or partial agonist activity
15 | Cc1cc(C(=O)Nc2cc([C@H](CN)CC(=O)O)ccc2Cl)n(C)n1 [(3R)-4-amino-3-{3-[(1,3-dimethylpyrazol-5-yl)carbonylamino]-4-chlorophenyl}butanoic acid] | agonist or partial agonist activity
16 | Cl.N#Cc1ccc(COc2cc([C@H](CN)CC(=O)O)ccc2Cl)cc1 [(3R)-4-amino-3-{4-chloro-3-[(4-cyanophenyl)methoxy]phenyl}butanoic acid hydrochloride] | agonist or partial agonist activity
17 | Cl.NC[C@H](CC(=O)O)c1ccc(Cl)c(CCc2ccccn2)c1 [(3R)-4-amino-3-[4-chloro-3-(2-(2-pyridyl)ethyl)phenyl]butanoic acid hydrochloride] | agonist or partial agonist activity
18 | NC[C@H](CC(=O)O)c1ccc(Cl)c(NC(=O)c2ccc([N+](=O)[O-])cc2)c1 [(3R)-4-amino-3-{4-chloro-3-[(4-nitrophenyl)carbonylamino]phenyl}butanoic acid] | agonist or partial agonist activity
19 | Cl.N#Cc1cccc(-c2cc(Cl)ccc2[C@H](CN)CC(=O)O)c1 [(3R)-4-amino-3-[4-chloro-2-(3-cyanophenyl)phenyl]butanoic acid hydrochloride] | agonist or partial agonist activity
20 | Cc1cc(-c2cc([C@H](CN)CC(=O)O)ccc2Cl)ccc1Cl.Cl [(3R)-4-amino-3-[4-chloro-3-(4-chloro-3-methylphenyl)phenyl]butanoic acid hydrochloride] | agonist or partial agonist activity
21 | NC[C@H](CC(=O)O)c1ccc(Cl)c(-c2ccsc2)c1 [(3R)-4-amino-3-[4-chloro-3-(3-thienyl)phenyl]butanoic acid] | agonist or partial agonist activity
22 | Cl.N#Cc1cccc(-c2cc([C@H](CN)CC(=O)O)ccc2Cl)n1 [(3R)-4-amino-3-[4-chloro-3-(6-cyano(2-pyridyl))phenyl]butanoic acid hydrochloride] | agonist or partial agonist activity
23 | Cl.NC[C@H](CC(=O)O)c1ccc(Cl)c(-c2cccc(CO)c2)c1 [Example 28, (3R)-4-Amino-3-{4-chloro-3-[3-(hydroxymethyl)phenyl]phenyl}butanoic acid hydrochloride] | agonist or partial agonist activity
24 | Cl.NC[C@H](CC(=O)O)c1ccc(Cl)c(-c2ccccc2)c1 [Example 39, (3R)-4-Amino-3-(4-chloro-3-phenyl-phenyl)butanoic acid hydrochloride] | agonist or partial agonist activity
25 | Cl.NC[C@H](CC(=O)O)c1ccc(Cl)c(NCc2cccc(C(=O)O)c2)c1 [3-[({5-[(1R)-2-amino-1-(carboxymethyl)ethyl]-2-chlorophenyl}amino)methyl]benzoic acid hydrochloride] | agonist or partial agonist activity
26 | Cl.NC[C@@H](CC(=O)O)c1ccc(Cl)c(-c2cccnc2)c1 [(3S)-4-amino-3-(4-chloro-3-(3-pyridyl)phenyl)butanoic acid hydrochloride] | agonist or partial agonist activity
27 | Cl.NC[C@H](CC(=O)O)c1ccc(Cl)c(-c2ccc(CC(=O)O)cc2)c1 [(3R)-4-amino-3-{3-[4-(carboxymethyl)phenyl]-4-chlorophenyl}butanoic acid hydrochloride] | agonist or partial agonist activity
